According to patent US20100119609A1, “METHODS, COMPOSITIONS, AND FORMULATIONS FOR THE TREATMENT OF THYROID EYE DISEASE” (priority 2006, published 2010):

Key:
[1] = compared with albuterol 5, a short acting hydrophilic beta agonist; cited from earlier work
[2] = test system: cultured human adipocytes; assay: In vitro lipolysis assay (glycerol release) in cultured adipocytes; type: cell-based; conditions: for increase in lipolysis relative to negative control: glycerol in Assay Buffer
Description: In the in vitro lipolysis assay, glycerol was detected in cell culture media via a spectrophotometric measurement after chemical oxidation with hydrogen peroxide. Glycerol was measured over a three hour time period. Levels of lipolysis in cultured human adipocytes were tested after exposure to a beta agonist alone, a glucocorticosteroid alone, or the combination of the two for one or more preincubation periods as described in more detail below.
Human subcutaneous adipocytes were used in the lipolysis assay. Adipose tissue was harvested from liposuction or lipectomy and pre-adipocytes were isolated as follows. Briefly, fat tissue was minced and incubated at 37° C. in Krebs-Ringer bicarbonate buffer containing 1% bovine serum albumin and 0.1% collagenase in an oxygen-rich shaking chamber (5% CO2; 75 strokes/min) for 1 hour. The suspension was filtered through a 400 tim nylon mesh and centrifuged for 1 mm at 100 g. The pre-adipocytes in the […] were washed twice with and then plated in 96 well plates at a density of cells/well. The pre-adipocytes were cultured in maintenance medium for seven days as they differentiated into adipocytes.
At −21 hours before the lipolysis assay, medium was removed from each well and replaced with 75 μl of Maintenance Medium containing appropriate drug or DMSO (vehicle) concentrations (see Experimental Design section below). Each test drug or control treatment was applied to 8 wells/group (12 treatment groups per 96-well plate). At −3 hours prior to the lipolysis assay, each well was washed two times with Wash Buffer (200 μl/wash), filled with test or control solutions made up in Assay Buffer (75 μl/well), and then incubated for three hours, i.e., until measurement of glycerol content in the Assay Buffer. For some groups, a drug was only added for the three hour incubation period (see Experimental and Control Groups Below).
The glycerol content of the Assay Buffer from each well following the incubation was used as an index for lipolysis, where an increase in glycerol indicated lipolysis. Glycerol levels were assayed colorimetrically via a commercial glycerol assay kit (Randox Laboratory, United Kingdom) and quantified by comparison to a glycerol serial dilution standard curve (3 μM-200 μM). Glycerol concentrations for each well were normalized to cell density.
In each of the following control or experimental groups n=8 corresponding to the glycerol measurements for 8 wells from a 96-well cell culture plate.

[3] = 18 hour incubation, Salmeterol 10^−6 M or 10^−8 M, Budesonide 10^−6 M, Isoproterenol 10^−6 M
[4] = three hour incubation, isoproterenol 10^−6 M

Compound | lipophilicity relative to albuterol [1] | effect on lipolysis in cultured adipocytes [2, 3] | increase in lipolysis relative to negative control [2, 4] | effect on lipolysis in cultured adipocytes ([2]; three hour incubation) | lipolysis compared with isoproterenol (positive control) [2, 4]
OCc1cc(C(O)CNCCCCCCOCCCCc2ccccc2)ccc1O (racemic) [Salmeterol, ±2-(hydroxymethyl)-4-[1-hydroxy-2-[6-(4-phenylbutoxy)hexylamino]ethyl]-phenol] | at least 10,000 times |  |  |  | 
CC(C)NCC(O)c1ccc(O)c(O)c1 (stereo not shown) [Isoproterenol, isoproterenol] |  | decreased lipolysis | about 2.5 fold |  | 
budesonide |  | slight suppression of lipolysis | up to 1.5 fold | dose-dependent induction of lipolysis | lower than that observed for Isoproterenol
